In ChEMBL document CHEMBL1153480, “Study on the potential anti-cancer activity of phosphonium and ammonium-based ionic liquids” (2009):

How the values were obtained:
Type in all cases: functional
HCC 2998 [1] = assay: cells; details: Homo sapiens
Description: Growth inhibition of human HCC2998 cells assessed as cell growth at 10 uM by SRB assay

NCI-H322M [2] = assay: cells; details: Homo sapiens
Description: Growth inhibition of human NCI-H322M cells assessed as drug level required for 50% reduction in net protein increase by SRB assay relative to control

LOX IMVI [3] = assay: cells; details: Homo sapiens
Description: Growth inhibition of human LOXIMVI cells assessed as cell growth at 10 uM by SRB assay

MCF7 [4] = assay: cells; details: Homo sapiens
Description: Growth inhibition of human MCF7 cells assessed as drug level required for 50% reduction in net protein increase by SRB assay relative to control

SW-620 [5] = assay: cells; details: Homo sapiens
Description: Growth inhibition of human SW620 cells assessed as cell growth at 10 uM by SRB assay

SF-295 [6] = assay: Cytotoxicity against human SF295 cells by SRB assay; details: read-out: LC50 (the source's name)
SNB-19 [7] = assay: cells; details: Homo sapiens
Description: Growth inhibition of human SNB19 cells assessed as drug level required for 50% reduction in net protein increase by SRB assay relative to control

OVCAR-8 = assay: cells; details: Homo sapiens
Description: Growth inhibition of human OVCAR8 cells assessed as drug level required for 50% reduction in net protein increase by SRB assay relative to control

SF-295 [8] = assay: cells; details: Homo sapiens
Description: Growth inhibition of human SF295 cells assessed as cell growth at 10 uM by SRB assay

K562 = assay: cells; details: Homo sapiens
Description: Growth inhibition of human K562 cells assessed as cell growth at 10 uM by SRB assay

UACC-62 [9] = assay: cells; details: Homo sapiens
Description: Growth inhibition of human UACC62 cells assessed as cell growth at 10 uM by SRB assay

cells [10] = details: Homo sapiens, CAKI
Description: Growth inhibition of human CAKI cells assessed as cell growth at 10 uM by SRB assay

HCC 2998 [11] = assay: Cytotoxicity against human HCC2998 cells by SRB assay; details: read-out: LC50 (the source's name)
HOP-62 [12] = assay: cells; details: Homo sapiens
Description: Growth inhibition of human HOP62 cells assessed as cell growth at 10 uM by SRB assay

MDA-MB-231 [13] = assay: cells; details: Homo sapiens
Description: Growth inhibition of human MDA-MB-231 cells assessed as drug level required for 50% reduction in net protein increase by SRB assay relative to control

HT-29 [14] = assay: cells; details: Homo sapiens
Description: Growth inhibition of human HT-29 cells assessed as drug level required for 50% reduction in net protein increase by SRB assay relative to control

MOLT-4 [15] = assay: cells; details: Homo sapiens
Description: Growth inhibition of human MOLT4 cells assessed as cell growth at 10 uM by SRB assay

NCI-H460 = assay: Cytotoxicity against human NCI-H460 cells by SRB assay; details: read-out: LC50 (the source's name)
OVCAR-4 = assay: Cytotoxicity against human OVCAR4 cells by SRB assay; details: read-out: LC50 (the source's name)
Malme-3M [16] = assay: Cytotoxicity against human MALME-3M cells by SRB assay; details: read-out: LC50 (the source's name)
A498 [17] = assay: cells; details: Homo sapiens
Description: Growth inhibition of human A498 cells assessed as cell growth at 10 uM by SRB assay

A549 [18] = assay: Cytotoxicity against human A549 cells by SRB assay; details: read-out: LC50 (the source's name)
SNB-75 = assay: cells; details: Homo sapiens
Description: Growth inhibition of human SNB75 cells assessed as drug level required for 50% reduction in net protein increase by SRB assay relative to control

NCI-H226 [19] = assay: cells; details: Homo sapiens
Description: Growth inhibition of human NCI-H226 cells assessed as cell growth at 10 uM by SRB assay

IGROV-1 = assay: cells; details: Homo sapiens
Description: Growth inhibition of human IGROV1 cells assessed as drug level required for 50% reduction in net protein increase by SRB assay relative to control

LOX IMVI [20] = assay: cells; details: Homo sapiens; remark: listed apart in the source
Description: Growth inhibition of human LOXIMVI cells assessed as drug level required for 50% reduction in net protein increase by SRB assay relative to control

HCT-15 [21] = assay: cells; details: Homo sapiens
Description: Growth inhibition of human HCT15 cells assessed as drug level required for 50% reduction in net protein increase by SRB assay relative to control

HT-29 [22] = assay: cells; details: Homo sapiens; remark: listed apart in the source
Description: Growth inhibition of human HT-29 cells assessed as cell growth at 10 uM by SRB assay

HOP-92 [23] = assay: cells; details: Homo sapiens
Description: Growth inhibition of human HOP92 cells assessed as drug level required for 50% reduction in net protein increase by SRB assay relative to control

HCT-116 [24] = assay: cells; details: Homo sapiens
Description: Growth inhibition of human HCT116 cells assessed as cell growth at 10 uM by SRB assay

UACC-257 = assay: cells; details: Homo sapiens
Description: Growth inhibition of human UACC257 cells assessed as drug level required for 50% reduction in net protein increase by SRB assay relative to control

SNB-19 [25] = assay: Cytotoxicity against human SNB19 cells by SRB assay; details: read-out: LC50 (the source's name)
RXF 393 [26] = assay: cells; details: Homo sapiens
Description: Growth inhibition of human RFX393 cells assessed as cell growth at 10 uM by SRB assay

NCI-H226 [27] = assay: cells; details: Homo sapiens; remark: listed apart in the source
Description: Growth inhibition of human NCI-H226 cells assessed as drug level required for 50% reduction in net protein increase by SRB assay relative to control

MDA-MB-468 = assay: cells; details: Homo sapiens
Description: Growth inhibition of human MDA-MB-468 cells assessed as drug level required for 50% reduction in net protein increase by SRB assay relative to control

UO-31 = assay: cells; details: Homo sapiens
Description: Growth inhibition of human UO31 cells assessed as cell growth at 10 uM by SRB assay

A498 [28] = assay: cells; details: Homo sapiens; remark: listed apart in the source
Description: Growth inhibition of human A498 cells assessed as drug level required for 50% reduction in net protein increase by SRB assay relative to control

A549 [29] = assay: cells; details: Homo sapiens
Description: Growth inhibition of human A549 cells assessed as cell growth at 10 uM by SRB assay

HCT-15 [30] = assay: cells; details: Homo sapiens; remark: listed apart in the source
Description: Growth inhibition of human HCT15 cells assessed as cell growth at 10 uM by SRB assay

HOP-92 [31] = assay: cells; details: Homo sapiens; remark: listed apart in the source
Description: Growth inhibition of human HOP92 cells assessed as cell growth at 10 uM by SRB assay

UACC-62 [32] = assay: cells; details: Homo sapiens; remark: listed apart in the source
Description: Growth inhibition of human UACC62 cells assessed as drug level required for 50% reduction in net protein increase by SRB assay relative to control

SF-268 [33] = assay: Cytotoxicity against human SF268 cells by SRB assay; details: read-out: LC50 (the source's name)
MCF7 [34] = assay: cells; details: Homo sapiens; remark: listed apart in the source
Description: Growth inhibition of human MCF7 cells assessed as cell growth at 10 uM by SRB assay

cells [35] = details: Homo sapiens, Hs-578T; read-out: LC50 (the source's name)
Description: Cytotoxicity against human Hs 578T cells by SRB assay

NCI-H322M [36] = assay: cells; details: Homo sapiens; remark: listed apart in the source
Description: Growth inhibition of human NCI-H322M cells assessed as cell growth at 10 uM by SRB assay

MOLT-4 [37] = assay: cells; details: Homo sapiens; remark: listed apart in the source
Description: Growth inhibition of human MOLT4 cells assessed as drug level required for 50% reduction in net protein increase by SRB assay relative to control

NCI-H522 = assay: cells; details: Homo sapiens
Description: Growth inhibition of human NCI-H522 cells assessed as drug level required for 50% reduction in net protein increase by SRB assay relative to control

ACHN = assay: cells; details: Homo sapiens
Description: Growth inhibition of human ACHN cells assessed as drug level required for 50% reduction in net protein increase by SRB assay relative to control

RXF 393 [38] = assay: Cytotoxicity against human RFX393 cells by SRB assay; details: read-out: LC50 (the source's name)
DU-145 [39] = assay: Cytotoxicity against human DU145 cells by SRB assay; details: read-out: LC50 (the source's name)
MDA-MB-231 [40] = assay: cells; details: Homo sapiens; remark: listed apart in the source
Description: Growth inhibition of human MDA-MB-231 cells assessed as cell growth at 10 uM by SRB assay

SK-MEL-28 [41] = assay: cells; details: Homo sapiens
Description: Growth inhibition of human SK-MEL-28 cells assessed as drug level required for 50% reduction in net protein increase by SRB assay relative to control

HL-60(TB) [42] = assay: cells; details: Homo sapiens
Description: Growth inhibition of human HL-60(TB) cells assessed as cell growth at 10 uM by SRB assay

MDA-MB-435 = assay: Cytotoxicity against human MDA-MB-435 cells by SRB assay; details: read-out: LC50 (the source's name)
SK-MEL-28 [43] = assay: Cytotoxicity against human SK-MEL-28 cells by SRB assay; details: read-out: LC50 (the source's name)
SW-620 [44] = assay: cells; details: Homo sapiens; remark: listed apart in the source
Description: Growth inhibition of human SW620 cells assessed as drug level required for 50% reduction in net protein increase by SRB assay relative to control

TK-10 [45] = assay: cells; details: Homo sapiens
Description: Growth inhibition of human TK10 cells assessed as drug level required for 50% reduction in net protein increase by SRB assay relative to control

SK-MEL-2 = assay: cells; details: Homo sapiens
Description: Growth inhibition of human SK-MEL-2 cells assessed as cell growth at 10 uM by SRB assay

PC-3 = assay: cells; details: Homo sapiens
Description: Growth inhibition of human PC3 cells assessed as cell growth at 10 uM by SRB assay

HCT-116 [46] = assay: cells; details: Homo sapiens; remark: listed apart in the source
Description: Growth inhibition of human HCT116 cells assessed as drug level required for 50% reduction in net protein increase by SRB assay relative to control

SK-MEL-5 = assay: cells; details: Homo sapiens
Description: Growth inhibition of human SK-MEL-5 cells assessed as cell growth at 10 uM by SRB assay

KM12 = assay: cells; details: Homo sapiens
Description: Growth inhibition of human KM12 cells assessed as drug level required for 50% reduction in net protein increase by SRB assay relative to control

SF-268 [47] = assay: cells; details: Homo sapiens
Description: Growth inhibition of human SF268 cells assessed as drug level required for 50% reduction in net protein increase by SRB assay relative to control

BT-549 = assay: Cytotoxicity against human BT549 cells by SRB assay; details: read-out: LC50 (the source's name)
HL-60(TB) [48] = assay: cells; details: Homo sapiens; remark: listed apart in the source
Description: Growth inhibition of human HL-60(TB) cells assessed as drug level required for 50% reduction in net protein increase by SRB assay relative to control

SR = assay: cells; details: Homo sapiens
Description: Growth inhibition of human SR cells assessed as drug level required for 50% reduction in net protein increase by SRB assay relative to control

HOP-62 [49] = assay: Cytotoxicity against human HOP62 cells by SRB assay; details: read-out: LC50 (the source's name)
DU-145 [50] = assay: cells; details: Homo sapiens
Description: Growth inhibition of human DU145 cells assessed as cell growth at 10 uM by SRB assay

Malme-3M [51] = assay: cells; details: Homo sapiens
Description: Growth inhibition of human MALME-3M cells assessed as cell growth at 10 uM by SRB assay

cells [52] = details: Homo sapiens, Hs-578T
Description: Growth inhibition of human Hs 578T cells assessed as drug level required for 50% reduction in net protein increase by SRB assay relative to control

TK-10 [53] = assay: cells; details: Homo sapiens; remark: listed apart in the source
Description: Growth inhibition of human TK10 cells assessed as cell growth at 10 uM by SRB assay

CCCCCCCC[N+](C)(CCCCCCCC)CCCCCCCC.O=S(=O)([N-]S(=O)(=O)C(F)(F)F)C(F)(F)F
growth at 10 µM (HCC 2998 [1]): -98%
GI50 (NCI-H322M [2]): 1810 nM
growth at 10 µM (LOX IMVI [3]): -74.7%
GI50 (MCF7 [4]): 317 nM
growth at 10 µM (SW-620 [5]): -100%
CC50 (SF-295 [6]): 4570 nM
GI50 (SNB-19 [7]): 587 nM
GI50 (OVCAR-8): 468 nM
growth at 10 µM (SF-295 [8]): -94.8%
growth at 10 µM (K562): 86.9%
growth at 10 µM (UACC-62 [9]): -94.5%
growth at 10 µM (cells [10]): -98.6%
CC50 (HCC 2998 [11]): 6960 nM
growth at 10 µM (HOP-62 [12]): -92.2%
GI50 (MDA-MB-231 [13]): 345 nM
GI50 (HT-29 [14]): 305 nM
growth at 10 µM (MOLT-4 [15]): 37.4%
CC50 (NCI-H460): 4100 nM
CC50 (OVCAR-4): 5800 nM
CC50 (Malme-3M [16]): 4110 nM
growth at 10 µM (A498 [17]): -100%
CC50 (A549 [18]): 8580 nM
GI50 (SNB-75): 336 nM
growth at 10 µM (NCI-H226 [19]): -86.2%
GI50 (IGROV-1): 388 nM
GI50 (LOX IMVI [20]): 192 nM
GI50 (HCT-15 [21]): 993 nM
growth at 10 µM (HT-29 [22]): -100%
GI50 (HOP-92 [23]): 206 nM
growth at 10 µM (HCT-116 [24]): -100%
GI50 (UACC-257): 411 nM
CC50 (SNB-19 [25]): 8250 nM
growth at 10 µM (RXF 393 [26]): -100%
GI50 (NCI-H226 [27]): 478 nM
GI50 (MDA-MB-468): 119 nM
growth at 10 µM (UO-31): -100%
GI50 (A498 [28]): 1820 nM
growth at 10 µM (A549 [29]): -100%
growth at 10 µM (HCT-15 [30]): -75%
growth at 10 µM (HOP-92 [31]): -70%
GI50 (UACC-62 [32]): 335 nM
CC50 (SF-268 [33]): 5500 nM
growth at 10 µM (MCF7 [34]): -100%
CC50 (cells [35]): > 100000 nM
growth at 10 µM (NCI-H322M [36]): -100%
GI50 (MOLT-4 [37]): 324 nM
GI50 (NCI-H522): 287 nM
GI50 (ACHN): 630 nM
CC50 (RXF 393 [38]): 5750 nM
CC50 (DU-145 [39]): 4440 nM
growth at 10 µM (MDA-MB-231 [40]): -87%
GI50 (SK-MEL-28 [41]): 710 nM
growth at 10 µM (HL-60(TB) [42]): 32%
CC50 (MDA-MB-435): 5700 nM
CC50 (SK-MEL-28 [43]): 7180 nM
GI50 (SW-620 [44]): 378 nM
GI50 (TK-10 [45]): 503 nM
growth at 10 µM (SK-MEL-2): -94.1%
growth at 10 µM (PC-3): -91.3%
GI50 (HCT-116 [46]): 319 nM
growth at 10 µM (SK-MEL-5): -100%
GI50 (KM12): 310 nM
GI50 (SF-268 [47]): 493 nM
CC50 (BT-549): 4420 nM
GI50 (HL-60(TB) [48]): 173 nM
GI50 (SR): 162 nM
CC50 (HOP-62 [49]): 7770 nM
growth at 10 µM (DU-145 [50]): -100%
growth at 10 µM (Malme-3M [51]): -94.1%
GI50 (cells [52]): 417 nM
growth at 10 µM (TK-10 [53]): -100%

CCCCCCCCCCCCCCCCCCPCCCCCCCCCCCCCC (configuration not stated) [MONO(OCTADECYL(TETRADECYL)PHOSPHONIUM) MONO(HEXAFLUOROPHOSPHATE(V)) MONO(TETRAFLUOROBORATE)]
growth at 10 µM (HCC 2998 [1]): -76.4%
GI50 (NCI-H322M [2]): 401 nM
growth at 10 µM (LOX IMVI [3]): 0.43%
GI50 (MCF7 [4]): 253 nM
growth at 10 µM (SW-620 [5]): -43.8%
CC50 (SF-295 [6]): > 100000 nM
GI50 (SNB-19 [7]): 97 nM
GI50 (OVCAR-8): 229 nM
growth at 10 µM (SF-295 [8]): -50%
growth at 10 µM (K562): 16.6%
growth at 10 µM (UACC-62 [9]): -77.4%
growth at 10 µM (cells [10]): -70.2%
CC50 (HCC 2998 [11]): > 100000 nM
growth at 10 µM (HOP-62 [12]): -65.6%
GI50 (MDA-MB-231 [13]): 107 nM
GI50 (HT-29 [14]): 61 nM
growth at 10 µM (MOLT-4 [15]): 7.02%
CC50 (NCI-H460): > 100000 nM
CC50 (OVCAR-4): > 100000 nM
CC50 (Malme-3M [16]): > 100000 nM
growth at 10 µM (A498 [17]): -75.6%
CC50 (A549 [18]): > 100000 nM
GI50 (SNB-75): 223 nM
growth at 10 µM (NCI-H226 [19]): -68.1%
GI50 (IGROV-1): 316 nM
GI50 (LOX IMVI [20]): 50 nM
GI50 (HCT-15 [21]): 339 nM
growth at 10 µM (HT-29 [22]): -45%
GI50 (HOP-92 [23]): 38 nM
growth at 10 µM (HCT-116 [24]): -13.1%
GI50 (UACC-257): 272 nM
CC50 (SNB-19 [25]): > 100000 nM
growth at 10 µM (RXF 393 [26]): -16.9%
GI50 (NCI-H226 [27]): 189 nM
GI50 (MDA-MB-468): 53 nM
growth at 10 µM (UO-31): -44.8%
GI50 (A498 [28]): 472 nM
growth at 10 µM (A549 [29]): 2.21%
growth at 10 µM (HCT-15 [30]): -35.8%
growth at 10 µM (HOP-92 [31]): -55.5%
GI50 (UACC-62 [32]): 61 nM
CC50 (SF-268 [33]): > 100000 nM
growth at 10 µM (MCF7 [34]): -40.8%
CC50 (cells [35]): > 100000 nM
growth at 10 µM (NCI-H322M [36]): -79.2%
GI50 (MOLT-4 [37]): 90 nM
GI50 (NCI-H522): 158 nM
GI50 (ACHN): 244 nM
CC50 (RXF 393 [38]): > 100000 nM
CC50 (DU-145 [39]): > 100000 nM
growth at 10 µM (MDA-MB-231 [40]): -74.5%
GI50 (SK-MEL-28 [41]): 376 nM
growth at 10 µM (HL-60(TB) [42]): 24.9%
CC50 (MDA-MB-435): > 100000 nM
CC50 (SK-MEL-28 [43]): > 100000 nM
GI50 (SW-620 [44]): 72 nM
GI50 (TK-10 [45]): 234 nM
growth at 10 µM (SK-MEL-2): -64.7%
growth at 10 µM (PC-3): -32.7%
GI50 (HCT-116 [46]): 84 nM
growth at 10 µM (SK-MEL-5): -69.2%
GI50 (KM12): 59 nM
GI50 (SF-268 [47]): 88 nM
CC50 (BT-549): > 100000 nM
GI50 (HL-60(TB) [48]): 39 nM
GI50 (SR): 107 nM
CC50 (HOP-62 [49]): > 100000 nM
growth at 10 µM (DU-145 [50]): -54.3%
growth at 10 µM (Malme-3M [51]): -61.6%
GI50 (cells [52]): 84 nM
growth at 10 µM (TK-10 [53]): -75%
